In article PMC4445981, “The glutamate transport inhibitor DL-Threo-β-Benzyloxyaspartic acid (DL-TBOA) differentially affects SN38- and oxaliplatin-induced death of drug-resistant colorectal cancer cells” (BMC Cancer, 2015):

How the values were obtained:
p21^WAF1/Cip (p21) = assay: p21 protein level by Western blotting; assay type: cell-based, human; details: for p21 protein level: 24 h, 0.8 μM SN38 or 20 μM oxaliplatin
Method: Cells were grown to a confluence of 60-80 % and treated with chemotherapy, siRNA- or plasmid transfection as indicated. Cells were washed once in PBS, lysed in lysis buffer (1 % SDS, 0.1 M Tris pH 7.5, and 1 mM Na3VO4), sonicated, and protein content determined (DC assay, BioRad). Lysates were mixed 2:1with NuPage LDS sample buffer (Invitrogen). SDS-PAGE was carried out in NOVEX chambers with NuPAGE 10 % Bis-Tris gels under reducing and denaturing conditions, using BenchMark protein ladder (Invitrogen), and 15 μg protein per lane. Proteins were transferred to PVDF membranes, which were Ponceau S stained, blocked for 1 h at 37 °C in 5 % nonfat dry milk in TBST (0.01 M Tris/HCl, 0.15 M NaCl, 0.1 % Tween 20, pH 7.4), incubated overnight at 4 °C with primary antibodies diluted in blocking buffer, washed in TBST, incubated with secondary antibodies for 1 h, washed in TBST, and developed using BCIP/NBT (KPL). Bands were scanned and quantified using UN-SCAN-IT (Silk Scientific).
Supplementary file 12885_2015_1405_MOESM3_ESM.tiff: Additional file 3: Figure S3. Effects of DL-TBOA on cell death and survival parameters after chemotherapy treatment of HCT116 cells. Parental and drug-resistant HCT116 cell lines seeded in 6-well dishes were exposed to SN38 (0.8 μM) or oxaliplatin (20 μM), alone or in combination with 350 μM DL-TBOA as indicated, for 24 h. Equal amounts of protein per lane were separated by SDS-PAGE and the protein levels of p21, and PARP-1 (full-length and cleaved, the latter indicated by arrowheads) were determined by Western blotting. Top: Representative Western blots, with p150 as loading control. Bottom: Densitometric quantifications based on 3 independent experiments per condition. Data are means with S.E.M. error bars of 3 independent experiments. *) p < 0.05, **) p < 0.01, ***) p < 0.001,****) p < 0.0001 compared to the control group without drug or TBOA treatment; #) p < 0.05 compared to controls without TBOA treatment. Two-way ANOVA with Tukey post-test.

[1] = tested on: parental and drug-resistant HCT116 and LoVo cell lines; assay: MTT viability assay, HCT116 and LoVo cell lines; assay type: cell-based, human
Method: (§1) Fig. 2 DL-TBOA augments SN38-induced death in SN38-resistant cells, but protects oxaliplatin-resistant cells from oxaliplatin-induced death. Parental and drug-resistant HCT116 and LoVo cell lines seeded in 96-well dishes were exposed to SN38 (0.1 or 0.8 μM) or oxaliplatin (0.8 or 20 μM), alone or in combination with 70 or 350 μM DL-TBOA as indicated, for 48 h. Viability was assessed by MTT assay. a-b Parental HCT116 cells, (c) SN38 resistant HCT116 cells, (d) Oxaliplatin-resistant HCT116 cells, (e-f) Parental LoVo cells, (g) SN38 resistant LoVo cells, (h) Oxaliplatin-resistant LoVo cells. Data are means with S.E.M. error bars of 3 independent experiments. *) p < 0.05, **) p < 0.01, ***) p < 0.001 compared to the control group without drug or TBOA treatment; #) p < 0.05 compared to controls without TBOA treatment. One-way ANOVA followed by Dunnett post-test
Cells were seeded at appropriate density (LoVo 10,000, and HCT116 5000 cells /100 μl) in growth medium in 96-well plates. Next day, cells were treated with inhibitors and/or chemotherapy in a total volume of 200 μl in growth medium and incubated for 48 h at 37 °C, 5 % CO2. The medium was replaced with 100 μl of 0.5 mg/ml 3-(4,5-dimethylthiazol-2-yl)-2,5-diphenyltetrazolium bromide (MTT) in growth medium. The reaction was stopped 1.5-2.5 h later by addition of 100 μl 20 % SDS in 0.02 M HCl, and incubation overnight to allow complete lysis of cells and formazan crystals. Absorbance was measured in an ELISA plate reader (Thermo Scientific MultiScan FC) at 550 nm. Data were background subtracted and % viability relative to controls calculated.

parental LoVo cells = assay: MTT viability assay, parental LoVo cells; assay type: cell-based, human; details: 350 μM DL-TBOA, 48 h
Method: as §1
Cells were seeded at appropriate density (LoVo 10,000, and HCT116 5000 cells /100 μl) in growth medium in 96-well plates. Next day, cells were treated with inhibitors and/or chemotherapy in a total volume of 200 μl in growth medium and incubated for 48 h at 37 °C, 5 % CO2. […] Absorbance was measured in an ELISA plate reader (Thermo Scientific MultiScan FC) at 550 nm. Data were background subtracted and % viability relative to controls calculated.

SLC1A1 = details: depending on the system and experimental setup; cited from earlier work
[2] = tested on: [3H]-D-Asp uptake in HCT116 and LoVo cells (parental and resistant); assay: [3H]-D-Asp uptake assay, summary over cell lines; assay type: cell-based, human; details: all cell lines; read-out: IC50 values, inhibition of basal [3H]-D-Asp uptake
Method: (§2) We therefore next determined glutamate transporter activity (as uptake of the substrate [^3H]-D-Asp following a 6-min incubation in buffer supplemented with a tracer concentration of 100 nM [^3H]-D-Asp). […] To determine which transporter(s) was responsible for the [^3H]-D-Asp uptake, we assessed the effect of DL-TBOA, a nonselective inhibitor of EAATs, and UCPH-101, a specific SLC1A3 inhibitor [16, 28, 29]. […] Basal [^3H]-D-Asp uptake was decreased by about 60 % in SN38-resistant compared to parental HCT116 cells, whereas that in SN38-resistant LoVo cells was nearly tripled compared to parental LoVo cells.
(§3) The [^3H]-D-Asp uptake assay was performed essentially as in [30]. Briefly, cells were split into poly-D-lysine-coated white 96-well plates (PerkinElmer). A similar number of cells were seeded for HCT116 parental, HCT116-SN38 and HCT116-Oxa cell lines (7 × 10^4 cells/well) and LoVo parental, Lovo-SN38 and Lovo-Oxa cell lines (6 × 10^4 cells/well). 16–24 h later, culture medium was aspirated, and cells were washed once with 100 μl assay buffer (Hank’s Buffered Saline Solution supplemented with 20 mM HEPES, 1 mM CaCl2 and 1 mM MgCl2, pH 7.4). 50 μl assay buffer supplemented with 100 nM [^3H]-D-Asp and test compounds as indicated was added, and the plate was incubated at 37 °C for 6 min. Non-specific [^3H]-D-Asp uptake was determined in wells with 3 mM L-glutamate. The assay mixture was quickly removed, and wells were washed with 2 × 100 μl ice-cold assay buffer, followed by 150 μl Microscint™20 scintillation fluid (PerkinElmer). The plate was shaken for 1 h and counted in a Wallac 1450 MicroBeta Trilux scintillation counter (GMI, Ramsey, MN).

[3] = tested on: [3H]-D-Asp uptake (glutamate transporter activity) in HCT116-SN38 cells; assay: [3H]-D-Asp uptake assay, HCT116-SN38; assay type: cell-based, human; details: HCT116-SN38, 100 nM [3H]-D-Asp, 6 min, 37 °C
Method: as §2, §3

## O=C(O)C(=O)O.[NH-][C@@H]1CCCC[C@H]1[NH-].[Pt+2] [oxaliplatin]
p21^WAF1/Cip (p21); SN38-resistant HCT116 cells
  p21 protein level: retained
p21^WAF1/Cip (p21); parental HCT116 cells
  p21 protein level: markedly induced
[1]; parental HCT116 and LoVo, 48 h, 20 μM oxaliplatin (highest dose tested)
  viable cells remaining: about 20%

## N[C@H](C(=O)O)[C@H](OCc1ccccc1)C(=O)O (racemic) [TBOA, DL-Threo-β-Benzyloxyaspartic acid]
Parental LoVo cells
  effect on loss of viability induced by 0.8 μM oxaliplatin: essentially abolished the loss of viability
SLC1A1
  IC50 values in uptake assays: low micromolar range
[2]
  IC50: ~2 µM
p21^WAF1/Cip (p21); DL-TBOA, HCT116 and LoVo cells
  effect on cellular level of p21: did not significantly alter
[1]; SN38-resistant HCT116 and LoVo cells, concomitant DL-TBOA 70 or 350 μM, 48 h
  effect on SN38-induced loss of viability: concentration-dependently enhanced SN38-induced loss of viability
[1]; both parental cell lines, DL-TBOA 70 or 350 μM concomitantly with oxaliplatin, 48 h
  effect on oxaliplatin-induced loss of viability: counteracted the effect of oxaliplatin on viability
[1]; no chemotherapeutic, DL-TBOA 70 or 350 μM, 48 h, all cell lines (Fig. 2a-h)
  effect on viability of untreated cells: small decrease in viability
[1]; oxaliplatin-resistant HCT116 and LoVo cells, DL-TBOA 70 or 350 μM, 48 h
  effect on oxaliplatin-induced loss of viability: reversed oxaliplatin-induced loss of viability
[1]; parental cell lines, DL-TBOA 70 or 350 μM concomitantly with SN38, 48 h
  effect on SN38-induced loss of viability: slightly exacerbated the SN38-induced loss of viability
[3]
  pIC50 ± S.E.M., [3H]-D-Asp uptake: 5.83 ± 0.08
[3]; read-out: IC50, [3H]-D-Asp uptake
  IC50: 1.5 µM
